Data set [1] relates to Caco-2 cells. Description: TER measurement of Caco-2 monolayers after CP treatment. The conditions noted are these: Caco-2 monolayer, up to 3 days after administration. The class given is cell-based, human. The procedure:
In addition to protection against an acidic environment mimicking the stomach, chitosan has been reported to open tight junctions within the intestinal epithelium and increase bioavailability in vivo ([51]). […] TER was measured three days before treatment and again after administration of nanoparticles or free drug for up to 3 days.
TER measurements were performed using an EVOM2 Epithelial Voltohmmeter (World Precision Instruments, USA).

The nature of data set [2]: Kidney health in ADPKD mice (i-Stat Chem-8+ blood analysis). The class given is in vivo, mouse. How it is done: On the day of harvest, 90 µL of blood taken from the submandibular vein was analyzed using Chem-8+ cartridges for the i-Stat Handheld Blood Analyzer (Abbott, Chicago, IL, USA). Kidney health markers including measurements of plasma sodium (Na), potassium (K), chloride (Cl), ionized calcium (iCa), total carbon dioxide (tCO2), glucose (Glu), BUN/urea, creatinine (Crea), hematocrit (Hct), and hemoglobin (Hb) were evaluated.

Data set [3] is described as follows: Biodistribution after oral gavage (ex vivo organ Cy7 fluorescence). The following applies: 200 μL of 500 µM Cy7-labeled, 24 h, ex vivo imaging, N = 4. How it is done: All animal procedures followed NIH guidelines for the care and use of laboratory animals and were approved by the University of Southern California's Institutional Animal Care and Use Committee. […] Mice were euthanized 24 h postinjection and organs (e.g. brain, heart, lungs, liver, kidneys, spleen, intestines, and bladder) were excised, imaged ex vivo on an AMI HTX in vivo imaging system, and the fluorescence signal was quantified via Aura software (Spectral Instruments Imaging, Tucson, AZ, USA, n ≥ 4). The mean radiance (photons/s/cm^2/sr) for each organ was quantified as a region of interest, and % of total organ fluorescence was obtained by dividing the fluorescence level of each organ by the sum of all the organ regions. Background was subtracted from the PBS-treated group.

For data set [4], the system named is AMPK. In words: Intestine-kidney in vitro Transwell model, phospho-AMPK ELISA. The class given is cell-based, mouse. The conditions noted are these: mpkCCDc14 cells below Caco-2 cells on Transwell, after 12 hours, N ≥ 3. The procedure:
To collect cysts grown in Matrigel, cysts were kept on ice for 1 h to liquidize the Matrigel and centrifuged at 400×g for 5 min to collect the cyst in the pellet. All standards and samples were measured on a Varioskan LUX microplate reader at a wavelength of 450 nm. The phospho-AMPK to total AMPK ratio was normalized to the PBS group and presented in percentage.
(In general: ELISA stands for enzyme-linked immunosorbent assay.)

The conditions of data set [5]: cited from earlier work. From the text:
The primary obstacle in the current management of kidney disease lies in the inadequate drug concentration within the kidney. This limitation is particularly evident in the case of ADPKD, where the only FDA-approved treatment, tolvaptan, achieves ∼5.7% accumulation in the kidney after oral administration ([62]). Similarly, in our study, ∼4.5% of free metformin accumulated in the kidney. Given the pronounced deficiency in kidney bioavailability observed with free drugs, our innovative oral kidney-targeting nanoformulation emerges as a promising solution to the current clinical challenges by pro ...

Details of data set [6]: method as in PMID 24211079. The conditions noted are these: cited from earlier work.
[7] abbreviates: oral every 3 days P30-P120, day of harvest.

Take `CN(C)C(=N)N=C(N)N` [free metformin, metformin]: the “change in TER” value in data set [1] is on record as “no changes in TER”. The molecule also came in with a Na in data set [2] (oral every 3 days P30-P120, blood from submandibular vein, day of harvest) of 144.6 ± 1.6 mmol/L. In data set [2] (setting [7]), this molecule gave a BUN/Urea of 22.8 ± 7.8 md/dL, a Cl of 113.0 ± 3.2 mmol/L, a Crea below 0.2 md/dL and a Glu of 220 ± 24.4 mg/dL. In data set [2] (setting [7]), this molecule displayed a Hb of 12.8 ± 0.9 g/dL, a Hct of 37.4 ± 3.0 PCV, a K of 5.9 ± 1.4 mmol/L and an iCa of 1.1 ± 0.2 mmol/L. Further, the tCO2 in data set [2] (setting [7]) is on record as 23.1 ± 0.8 mmol/L. In addition, in data set [3], the “kidney accumulation (% of total organ fluorescence)” value is reported as around 4.5%. Further, the “phosphorylated AMPK to total AMPK” value in data set [4] was found to be 1.3 ± 0.4.

As for `Cc1ccccc1C(=O)Nc1ccc(C(=O)N2CCCC(O)c3cc(Cl)ccc32)c(C)c1` (stereo not drawn) [tolvaptan], the “accumulation in the kidney after oral administration” value in data set [5] was around 5.7%.

Take “Cy7-DSPE-PEG2000-(KKEEE)3K [free amphiphilic monomers, unassembled kidney-targeting amphiphiles]”: in data set [6], the critical micelle concentration is recorded as around 1 µM.
